Assay results from patent publication US7985745B2, “Method for pain treatment” (Abbott Laboratories, priority 2006, dated 2011).

What was measured:
histamine H4 receptor [1] = target: T1, histamine H4 receptor (Homo sapiens, UniProt Q9H3N8); experiment: FLIPR Ca2+ assay in HEK-293 cells stably expressing histamine H4 receptor and Gαqi5; assay type: cell-based; settings: Kb for antagonists and inverse agonists, EC50 for partial agonists; block of histamine-induced Ca2+ increase
T1 construct: expressed in transfected cells; host or cells: HEK-293 cells, transient transfection with pCINeo vector; membranes
Description: Histamine H4 receptors from mammalian species have been cloned. Methods to clone, express, and assess the potency and functional activity of such cloned genes are well known to those skilled in the art of molecular biology. […] Before testing, cells are loaded with a Ca^+2 sensitive fluorescent dye, in this case Fluo-4. In the case of partial agonist or agonist ligands, addition of compound to the cells leads to the increase in intracellular Ca^+2 which is detected by FLIPR (Fluorescence Imaging Plate Reader; Molecular Devices, Sunnyvale, Calif.) technology. […] The fluorescence intensities measured before addition of the test compound are subtracted from the fluorescence intensities at later time points. Peak response values determined at each concentration of ligand are expressed as a percentage of the response obtained with the full agonist histamine. Concentration versus response data are analyzed to obtain compound potency as Kb values for antagonists and inverse agonists and as EC50 values for partial agonists.

histamine H4 receptor [2] = target: T1, histamine H4 receptor; experiment: 3H-histamine competition binding assay, membranes of transfected HEK-293 cells; settings: displacement of [3H]-histamine, 25° C., 1 h; read-out: Potency in Competition Binding Assay
Description: In this assay, membranes were prepared from HEK-293 cells transiently transfected with the pCINeo expression vector harboring the histamine H4 receptor by homogenization of the cells on ice in TE buffer (50 mM Tris-HCl buffer, pH 7.4, containing 5 mM EDTA), 1 mM benzamidine, 2 μg/ml aprotinin, 1 μg/ml leupeptin, and 1 μg/ml pepstatin. The homogenate was centrifuged at 40,000 g for 20 minutes at 4° C. This step was repeated, and the resulting pellet was resuspended in TE buffer. Aliquots were frozen at −70° C. until needed. On the day of assay, membranes were thawed and diluted with TE buffer. Competition radioligand binding assays were performed with increasing concentrations of test compound in the presence of [^3H]-histamine incubated at 25° C. for 1 h in a total volume of 0.5 ml of 50 mM Tris, 5 mM EDTA, pH 7.4. All binding reactions were terminated by filtration under vacuum onto polyethylenimine (0.3%) presoaked Unifilters (PerkinElmer Life Sciences) or Whatman GF/B filters (Whatman, Clifton, N.J.) followed by three brief washes with 4 ml of ice-cold TE buffer. Bound radiolabel was determined by liquid scintillation counting. For all of the radioligand competition binding assays, IC50 values and Hill slopes were determined by Hill transformation of the data and Ki values were determined by the Cheng-Prusoff equation.

neuropathic pain = experiment: Bennett model: chronic constriction injury of sciatic nerve, mechanical stimulus; assay type: in vivo, rat
Description: To prepare animals for the model, an incision of about 1.5 cm was made about 0.5 cm below the rat pelvis. The biceps femoris and the gluteous superficialis (right side) were separated and the sciatic nerve exposed, isolated, and four loose ligatures (5-0 chromic [NT]) with 1 mm spacing were placed around it. The rats were allowed to recover and then placed in a cage with soft bedding for 10 days before assessment of pain response to mechanical stimulus by the method described above for the Chung model.

thermal hyperalgesia = experiment: Complete Freund's adjuvant-induced thermal hyperalgesia; assay type: in vivo, rat; settings: 30 minutes before testing, 48 hours after CFA, thermal stimulus
Description: To assess the effectiveness of representative compounds of the invention against hyperalgesia, animals were tested in an acute model of adjuvant-induced thermal hyperalgesia (see for example, Honore, et al. Behavioural Brain Research 167 (2006) 355-364; Carroll, et al. US Patent application US 2006/0025614A 1). To prepare animals for the model, a solution of Complete Freund's adjuvant (150 microliters of a 50% aqueous solution, Sigma Chemical Company, St. Louis, Mo.) was injected into the plantar surface of test paw of the animal (rat). Rats so injected develop a hyperalgesia to thermal stimulation which is assessed 48 hours after injection of the Complete Freund's adjuvant using a commercially available paw thermal stimulator (UARDG, Dept. of Anesthesiology, Univ. California at San Diego, La Jolla, Calif.). For testing, rats were placed individually in a so-called ‘hot box’ (i.e. Plexiglass cubicles mounted on a glass surface) maintained at 30° C., and allowed a 30 minute habituation period. A thermal stimulus, in the form of radiant heat emitted from a focused projection bulb, was then applied to the plantar surface of each hind paw. The stimulus current was maintained (e.g. at 4.5 Amp) and the time of exposure set to limit the extent of possible tissue damage (e.g. maximum of 20 seconds exposure to thermal heating from the projection bulb). The time (in seconds) for the withdrawal of the paw that was injected with the Complete Freund's adjuvant (CFA) and subjected to the thermal stimulus was recorded, and this was compared to the time (in seconds) for withdrawal of the uninjected paw subjected to the same thermal stimulus. […] To test the effect of a compound on the hyperalgesia, the test compound is dissolved in a vehicle (e.g. water or saline) and administered by i.p. (intraperitoneal) injection 30 minutes before the testing of the animal's response to the thermal stimulus to the paws. The antihyperalgesic activity of the compound in blocking the pain is shown by an increase in the time to withdraw the CFA-injected paw subjected to thermal stimulus. Experiments are done with single-dose and escalating-dosages of the test compound, and dose response curves constructed to determine ED50 values.

| Potency in the FLIPR assay (histamine H4 receptor [1]) [nM] | Ki (histamine H4 receptor [2]) [nM] | Structure (SMILES) | MPE (neuropathic pain; 100 micromole/kg i.p.) [%] | MPE (neuropathic pain; 300 micromole/kg i.p.) [%] | MPE (thermal hyperalgesia; 30 micromole/kg i.p.) [%] | MPE (thermal hyperalgesia; 100 micromole/kg i.p.) [%] | MPE (neuropathic pain; 250 micromole/kg i.p.) [%] | MPE (neuropathic pain; 500 micromole/kg i.p.) [%] | MPE (thermal hyperalgesia; 300 micromole/kg i.p.) [%] |
| --- | --- | --- | --- | --- | --- | --- | --- | --- | --- |
| 58 | 35 | CN1CCN(c2cc(-c3ccc(C#N)cc3)nc(N)n2)CC1.O=C(O)/C=C\C(=O)O [Example 1, 4-(2-Amino-6-(4-methylpiperazin-1-yl)pyrimidin-4-yl)benzonitrile, maleate] | 18 | 63 | 62 | 88 |  |  |  |
|  |  | CN1CCN(C(=O)c2cc3cc(Cl)ccc3[nH]2)CC1 [Example 3, reference compound] |  |  | 27 |  | 32 | 73 | 81 |
| 9 | 11 | CNC1CN(c2nc(N)nc3c2CCCc2ccccc2-3)C1 [Example 6, 4-(3-Methylamino-azetidin-1-yl)-6,7-dihydro-5H-benzo[6,7]cyclohepta[1,2-d]pyrimidin-2-ylamine] |  |  |  |  |  |  |  |
